From article PMC11790949, “A multiplex method for rapidly identifying viral protease inhibitors” (Molecular Systems Biology, 2025)
Where “and” joins values, the source holds several entries; their conditions need not be identical. Identical values can stand only once.

Columns and labels:
SARS-CoV-2 3CL protease [1] = molecular target: T1, SARS-CoV-2 3CL protease (Severe acute respiratory syndrome coronavirus 2, UniProt P0DTD1); test: Biochemical inhibition of peptide cleavage by purified SARS-CoV-2 3CL protease (fluorogenic)
SARS-CoV-2 3CL protease [2] = molecular target: T1, SARS-CoV-2 3CL protease; test: Mass spectrometry (MALDI-TOF) analysis of protein-inhibitor complex; format: binding; conditions: 50 μM protease, 500 μM inhibitor, 1 h at 4 °C
Experimental: For MALDI-TOF MS analysis, 1 µL of the protein-inhibitor complex (3CL protease only and 3CL protease-CB6778425) was mixed with 9 µL of 10 mg/mL sinapinic acid in the matrix solution (70:30 water/acetonitrile, with 0.1% TFA). About 1.0 µL of the final mix was deposited onto the target carrier and allowed to air dry. MALDI spectra of the protein-inhibitor complex were compared with ligand-free 3CL protease to determine the mass shift. MALDI spectra were collected with the software flexControl, while MALDI data were analyzed by flexAnalysis.

[3] = read-out: SARS-CoV-2 3CL Inhibition (%)

SMILES | IC50 (SARS-CoV-2 3CL protease [1]) [nM] | shift of IC50 upon pre-incubation with SARS-CoV-2 3CL (SARS-CoV-2 3CL protease [1]) | inhibition at 0.19382 µM (SARS-CoV-2 3CL protease [1]; [3]) | inhibition at 0.390625 µM (SARS-CoV-2 3CL protease [1]; [3]) [%] | inhibition at 0.49485 µM (SARS-CoV-2 3CL protease [1]; [3]) [%] | inhibition at 0.78125 µM (SARS-CoV-2 3CL protease [1]; [3]) [%] | inhibition at 0.79588 µM (SARS-CoV-2 3CL protease [1]; [3]) [%] | inhibition at 1.09691 µM (SARS-CoV-2 3CL protease [1]; [3]) [%] | inhibition at 1.39794 µM (SARS-CoV-2 3CL protease [1]; [3]) [%] | inhibition at 1.69897 µM (SARS-CoV-2 3CL protease [1]; [3]) [%] | inhibition at 2 µM (SARS-CoV-2 3CL protease [1]; [3]) [%] | inhibition at 0.000762939 µM (SARS-CoV-2 3CL protease [1]; [3]) [%] | inhibition at 0.00152588 µM (SARS-CoV-2 3CL protease [1]; [3]) [%] | inhibition at 0.0244141 µM (SARS-CoV-2 3CL protease [1]; [3]) [%] | inhibition at 0.0488281 µM (SARS-CoV-2 3CL protease [1]; [3]) [%] | inhibition at 0.0976563 µM (SARS-CoV-2 3CL protease [1]; [3]) [%] | inhibition at 0.195313 µM (SARS-CoV-2 3CL protease [1]; [3]) [%] | inhibition at 2.30103 µM (SARS-CoV-2 3CL protease [1]; [3]) [%] | inhibition at […] (SARS-CoV-2 3CL protease [1]; [3]) [%] | mass shift in the protease-inhibitor complex (SARS-CoV-2 3CL protease [2])
O=C(Oc1ccc2ccc(=O)oc2c1)c1cccs1 [CB6762077] | 1100 | shifts to lower IC50s | 71.8% | 12.9 | 77.7 | 30.2 | 75.9 | 90.1 | 88.9 | 94.3 | 112 | – | – | – | – | – | – | – | – | –
O=C(Oc1ccc2ccc(=O)oc2c1)c1ccco1 [CB6778425] | – | – | 104% | 94.5 | 102 | 98.7 | 95 | 96.4 | 103 | 98 | 95 | 0.215 | 4.28 | 19.7 | 39.2 | 62.7 | 85.1 | 90.6 | 11.4 | ~ 95 Da
CCc1cc(=O)oc2cc(OC(=O)c3ccco3)ccc12 [CB6728297] | 245 | shifts to lower IC50s | 94.7% and 89.2% | 64.9 | 88.9 | 90.8 | 93.8 | 98.7 | 93.4 | 95.6 | 88.8 | – | – | – | – | 9.07 | 39.5 | 99.1 | – | –
